Measurements reported in patent US9981956B2, “Small molecule inhibitors of fibrosis” (THE CALIFORNIA INSTITUTE FOR BIOMEDICAL RESEARCH, priority 2013, dated 2018).
Like-named read-outs stand apart in the source and are kept apart here.

How the values were obtained:
[1] = system: fibroblast to myofibroblast transdifferentiation (primary human lung fibroblasts and primary rodent HSCs); assay: High content imaging and western based assay of fibroblast to myofibroblast transdifferentiation (α-SMA); assay type: cell-based; settings: graded, TGF-β induced fibroblast to myofibroblast transdifferentiation
Description: A high content imaging assay, based on α-SMA staining and cell morphological changes associated with fibroblast to myofibroblast transdifferentiation, was established using primary human lung fibroblasts and primary rodent HSCs. Conditions, involving serum starvation and subsequent TGF-β treatment, were identified that facilitate robust in vitro transdifferentiation in a miniaturized (384 well plate) format that is amenable to high throughput small molecule screening. A selective ALK-5 TGF-β1 receptor inhibitor (SB-431542) was used as a positive control. […] This assay was used to identify a hit compound (itraconazole) and was used to evaluate focused panels of itraconazole analogues generated from medicinal chemistry efforts.
The activity of Itraconazole and its analogues was confirmed by analyzing changes in gene expression of multiple genes associated with fibroblast to myofibroblast transdifferentiation using biochemical methods (i.e., Western blot and RT-PCR). These 4-day assays were used to evaluate sets of 6 compounds at a time in 4-point dose response fashion.
After 24 hour incubation, cells were treated with the indicated doses of itraconazole for 48 hours in the presence of 10 ng/mL of TGF-β1 in hepatic stellate medium. Following fixation and staining with an anti smooth muscle actin antibody, cell morphology was analyzed with a Cellomics cell insight imaging reader (FIG. 1 for representative images). Cells were analyzed for mean cellular area of a-SMA staining (FIG. 5a) or mean fluorescence intensity of SMA staining (FIG. 5b).
After 24 incubation, medium was changed to assay medium containing TGF-β1 (10 ng/mL) and simultaneously treated with itraconazole (10 μM), SB431542 (10 μM) or vehicle control (FIG. 6).

PXR = target: T1, PXR (Homo sapiens, UniProt O75469); assay: PXR (Cyp 3A4) activation assay in DPX2 cells; assay type: cell-based; settings: compounds tested at 10, 1 and 0.1 μM, read-out: PXR activation (fold induction compared to Rifampicin)
T1 construct: expressed in transfected cells; host or cells: DPX2 cells
T1 sequence (O75469 1-434): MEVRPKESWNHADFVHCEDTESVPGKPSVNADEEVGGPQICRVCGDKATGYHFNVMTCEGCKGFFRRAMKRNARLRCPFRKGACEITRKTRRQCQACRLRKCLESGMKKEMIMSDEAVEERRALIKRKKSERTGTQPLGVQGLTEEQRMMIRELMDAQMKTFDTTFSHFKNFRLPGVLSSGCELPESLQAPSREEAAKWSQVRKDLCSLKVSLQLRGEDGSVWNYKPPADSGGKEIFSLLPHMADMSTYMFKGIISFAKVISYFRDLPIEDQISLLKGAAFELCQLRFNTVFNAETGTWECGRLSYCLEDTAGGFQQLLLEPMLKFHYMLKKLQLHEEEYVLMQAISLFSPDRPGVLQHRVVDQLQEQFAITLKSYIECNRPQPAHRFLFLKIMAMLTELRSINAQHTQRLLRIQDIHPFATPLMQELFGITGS
Method: CYP3A4 metabolism was evaluated by using P450-Glo™ CYP3A4 Assay with Luciferin-IPA as the substrate of CYP3A4 and represented as RLU (Relative Luminescence Units). PXR activation was evaluated by using a luciferase detection reagent, ONE-Glo™ and represented as RLU. The luminescence light intensity was directly proportional to the extent of PXR activation and accompanying gene transcription in the DPX2 cells. Compounds were tested at 10, 1, and 0.1 μM in the assay. Fold of induction=(RLU/RFU of compound treated sample)/(RLU/RFU of vehicle treated sample), RFU was the signal of cell viability. RLU was the signal of CYP3A metabolism and PXR activation. 0.1% DMSO was used as vehicle. Cell viability was detected by using CellTiter-Fluor™ and represented as RFU (Relative Fluorescence Units).
Activation potency was defined as negative, weak, moderate and strong. Negative, weak, moderate and strong activators are those that give <15%, <40%, <69% and >70%, respectively, of the response produced by 10 μM RIF at 10 μM.

Cyp3A4 = Cyp3A4 (Homo sapiens, UniProt P08684); assay: Cyp time-dependent inhibition (TDI) assay (human liver microsomes); assay type: in vitro ADME; set-up: The TDI assay was generally performed in liver microsomes; from tissue; host or cells: human liver microsomes; settings: for IC50: human liver microsomes; for TDI ratio: (−) NADPH/(+) NADPH: IC50 shift, >1.5-fold considered positive for TDI
Method: The data from this assay was used in conjunction to the reversible inhibition assay. […] Then both incubation sets were diluted with fresh assay buffer containing NADPH Cyp specific substrates (midazolam for Cyp3A4) and inhibition of midazolam hydroxylation was measured by LC-MS/MS (Q1/Q2=m/z 342.2/203.2).

[2] = 20 min pre-incubation with NADPH, read-out: 3A4-Midazolam IC50 (+) NADPH
[3] = 20 min pre-incubation without NADPH, read-out: 3A4-Midazolam IC50 (−) NADPH

Cyp3A4, sequence (P08684 whole entry): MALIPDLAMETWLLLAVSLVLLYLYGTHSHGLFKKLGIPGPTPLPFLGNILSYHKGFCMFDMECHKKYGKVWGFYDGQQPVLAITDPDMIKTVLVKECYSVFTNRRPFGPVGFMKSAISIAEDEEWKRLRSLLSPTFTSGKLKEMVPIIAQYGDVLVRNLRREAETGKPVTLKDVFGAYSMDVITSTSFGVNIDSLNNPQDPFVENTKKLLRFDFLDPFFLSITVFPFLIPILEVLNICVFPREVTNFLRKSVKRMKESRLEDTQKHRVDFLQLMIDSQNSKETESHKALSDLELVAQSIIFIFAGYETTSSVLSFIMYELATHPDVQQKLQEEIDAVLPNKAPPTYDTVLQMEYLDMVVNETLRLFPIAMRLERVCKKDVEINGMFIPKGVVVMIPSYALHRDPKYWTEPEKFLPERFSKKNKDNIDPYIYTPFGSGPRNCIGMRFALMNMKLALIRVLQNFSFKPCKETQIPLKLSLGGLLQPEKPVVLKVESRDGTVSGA

Structure (SMILES) | EC50 [1] | fold induction (PXR) | IC50 (Cyp3A4; [2]) | IC50 (Cyp3A4; [3]) | TDI ratio: (−) NADPH/(+) NADPH (Cyp3A4)
CCC(C)n1ncn(-c2ccc(N3CCN(c4ccc(OC[C@@H]5CO[C@@](Cn6nccn6)(c6ccc(Cl)cc6Cl)O5)cc4)CC3)cc2)c1=O (stereo partly drawn) [Compound 15] | 0.5 to 5 µM | ~1 | 41 µM | > 50 µM | ~1.2 (no TDI)
CCC(C)n1ncn(-c2ccc(N3CCN(c4ccc(OC[C@@H]5CO[C@@](Cc6ccnnc6)(c6ccc(Cl)cc6Cl)O5)cc4)CC3)cc2)c1=O (stereo partly drawn) [Compound 22] | < 0.5 µM | ~1.1 | > 50 µM | > 50 µM | ~1 (no TDI)
CCC(C)n1ncn(-c2ccc(N3CCN(c4ccc(OC[C@@H]5CO[C@@](Cn6nccn6)(c6ccccc6)O5)cc4)CC3)cc2)c1=O (stereo partly drawn) [Compound 42] | < 0.5 µM | ~1.5 | > 50 µM | > 50 µM | ~1 (no TDI)
